Measured values from US8791155B2, “Chroman derivatives” (Edison Pharmaceuticals, Inc., priority 2003, dated 2014).

Assays:
[1] = tested on: release of the leukotriene LTB4 from MPRO cell line; assay: LTB4 assay (competitive ELISA); type: cell-based; conditions: Mus musculus; 1 μM calcium ionophore A23187, 1 hour; read-out: EC50, inhibition of LTB4 production
Text: This procedure was used for measuring the release of the leukotriene LTB4 from a neutrophil cell line using a competitive ELISA technique.
• MPRO cell line (ATCC, Catalog #CRL-11422) • Calciumionophore (A23187) (Sigma, Catalog #C7522) • Nordihydroguaiaretic acid (NDGA) (BioMol, Catalog #E1101-0001) • Retinoic Acid (all-trans) (ATRA) (Sigma, Catalog #95152) • Sterile, tissue-culture treated 96-well plates (Corning, Catalog #3614) Materials for LTB4 ELISA • Precoated (Mouse Anti-Rabbit IgG) EIA 96 Well Strip Plates (Cayman, Catalog #400004) • Leukotriene B4 AChE Tracer (Cayman Catalog #420110) • Leukotriene B4 EIA Antiserum (Cayman Catalog #420112) • Ellman's Reagent (Cayman Catalog #400050) • EIA Buffer Concentrate (10×) (Cayman Catalog #400060) • Wash Buffer Concentrate (400×) (Cayman Catalog #400062) • Plastic plate covers (Cayman Catalog #400012) Procedure
A mouse promyelocytic cell line (MPRO) was used in this assay. These cells are committed immature neutrophils that can be differentiated into mature neutrophils by treatment with 10 μM all-trans retinoic acid for 72 hours
Following 72 hours of differentiation, cells were stimulated with 1 μM of a calcium ionophore (A23187) in the presence or absence of test compound or vehicle for 1 hour at 370 C. After this time, supernatant was removed from the cells and the LTB4 levels were determined following manufacturer's instructions, using a Leukotriene B4 EIA kit from Cayman (Cat #520111)
The negative controls were media samples from differentiated but unstimulated cells.
The compounds were screened at 5 concentrations in quadruplicate starting at 10 μM

[2] = tested on: dopaminergic neuronal cell line; assay: High glutamate-induced oxidative stress assay (HGOS); type: cell-based; conditions: Mus musculus; 30 mM glutamate, 16 hrs; read-out: EC50, protection against HGOS cell injury and cell death
Text: Protection against redox stress can be evaluated in cell culture using high glutamate induced oxidative stress (HGOS) in mouse dopaminergic cell lines. The cytotoxic effect of glutamate is not due to excitotoxicity, as this cell line is devoid of inotropic glutamate receptors. Rather, the glutamate-induced toxicity of dopaminergic cells is associated with an inhibition of cystine transport which subsequently leads to depletion of intracellular glutathione (GSH) levels (Murphy T. H., et al. Neuron 2, 1547-1558, 1989), activation of neuronal 12-lipoxygenase (Li, Y. et al., Neuron 19, 453-463, 1997), increased ROS production (Tan S. et al., J. Cell Biol. 141, 1423-1432, 1998) and elevated intracellular Cat^2+ (Li, Y. et al., see supra). Some molecules were measured for their ability to protect cells against glutamate-induced stress and the assay is detailed in Examples.
This procedure was used to induce high glutamate-induced oxidative stress (HGOS) in a dopaminergic neuronal cell line. Using this assay the potency and efficacy of test articles against HGOS neuronal cell injury and cell death was established in a high throughput manner.
• Dopaminergic neuronal cell lines • DMEM-No Glucose (Life Technologies Cat #11966-025) • L-glutamine (Life Technologies Cat #25030-081) • L-glutamic acid, monosodium salt (Sigma Cat #G5889) • D-glucose (Sigma Cat #G-6151) • 10×HBSS buffer (pH 7.4) (950 ml Pyrogen-free water, 2.44 g/L MgCl2.6H20, 3.73 g/L KCl, 59.58 g/L Hepes, 58.44 g/L NaCl, 1.36 g/L KH2PO4, 1.91 g/L CaCl2.2H2O and pH to […] with HCl) • Cell Tracker Green fluorescent dye (Molecular Probes, Cat #2925). Prepare a 5NM solution in pre-warmed HBSS just prior to use. • Sterile 96-well plates precoated with poly-D-lysine (Corning Catalog #3665) • 96-well deep well mother plate, DyNA Block 1000 (VWR Catalog #40002-008) Neuronal Cells
The cells were seeded into 96-well plates at a density of 2000 per well and left to grow for 72 hours in a 33° C. incubator with 5% CO2 in air atmosphere. The passage number of the cells for each assay experiment were no later than p11 in order to minimize experimental variation.
All compounds were dissolved in DMEM-No Glu containing 1 mM glucose, 30 mM glutamate and 1× Pen/Strep. DMEM-No Glu with 1 mM glucose and 1× P/S was used as the negative control, DMEM-No Glucose with 1 mM glucose, […] glutamate was used as a positive control and 100 NM Glutathione was added to the positive control as a standard. All of the procedures for this involving the making and dilution of compounds were performed using aseptic conditions and with minimal light.
The plates were removed from the incubator and examined under the microscope for morphological appearance and density. Using an aseptic technique and an 8-channel aspirator the media was carefully removed from the cells and replaced with 200 μI of 1×HBSS. This was done as quickly as possible to prevent the cells drying out. The plates were then placed in the humidified 37° C. incubators of the Biomek 2000 Side Loader. Four plates were washed at a time so as to minimize the time that the cells were sitting in 1×HBSS prior to addition of the compound test solution. Experimental Setup
The Beckman Biomek workstations were used to load the compounds and controls from the mother plates onto the cell plates that were prewashed with HBSS under sterile conditions. The plates were incubated in the upper HTS incubator at 37° C. in 5% CO2 for exactly 16 hrs. The following day, using the Beckman Biomek workstations, the plates were removed from the incubator. Using Cell Tracker Addition, the compounds were removed from the plates, washed once with […] of pre-warmed 1×HBSS and then 100 μL of 5 μM Cell Tracker Green was added to each well. The plates were incubated at 37° C. for 30 min to allow the dye to enter the cell and be cleaved by the esterases. […]

[3] = target: T1, porcine leukocyte 12/15-lipoxygenase (Sus scrofa, UniProt P16469); assay: 12/15-Lipoxygenase enzyme assay; type: biochemical; conditions: 70 μM arachidonic acid, pH 7.4, 10 minute incubation; read-out: IC50, inhibition of 12/15-Lipoxygenase
T1 construct: purchased Cayman 60300
T1 sequence (P16469 1-663): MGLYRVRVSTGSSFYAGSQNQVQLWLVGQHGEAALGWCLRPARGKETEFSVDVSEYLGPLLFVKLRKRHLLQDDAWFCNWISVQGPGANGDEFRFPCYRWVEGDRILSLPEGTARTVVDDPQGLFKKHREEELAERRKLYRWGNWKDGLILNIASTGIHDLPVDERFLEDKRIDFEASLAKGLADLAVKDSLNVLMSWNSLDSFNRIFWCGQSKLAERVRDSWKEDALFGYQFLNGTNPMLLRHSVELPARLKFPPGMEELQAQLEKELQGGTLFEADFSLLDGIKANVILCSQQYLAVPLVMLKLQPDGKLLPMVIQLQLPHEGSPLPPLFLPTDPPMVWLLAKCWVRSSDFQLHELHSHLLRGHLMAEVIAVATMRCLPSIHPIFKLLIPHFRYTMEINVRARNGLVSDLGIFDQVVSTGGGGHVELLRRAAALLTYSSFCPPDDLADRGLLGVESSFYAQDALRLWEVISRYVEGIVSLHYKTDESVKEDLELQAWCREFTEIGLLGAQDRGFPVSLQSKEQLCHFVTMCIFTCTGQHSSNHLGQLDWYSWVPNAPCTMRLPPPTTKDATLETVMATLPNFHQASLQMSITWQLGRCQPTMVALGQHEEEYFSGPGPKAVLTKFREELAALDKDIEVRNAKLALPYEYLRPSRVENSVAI
Text: (§1) In vitro evaluation of the ability of a composition to inhibit the enzymes 5-lipoxygenase, 15-lipoxygenase, or 12/15 lipoxygenase as described in Walidge, N. B. et al Anal. Biochem., 231: 354-358 (1995) using a high throughput colorimetric method; as well as in vitro evaluation of inhibiting LTB4 is described in Examples.
This procedure was used for measuring the enzymatic activity of porcine leukocyte 12/15-lipoxygenase using a colorimetric method based on the ferric oxidation of xylenol orange.
(§2) • 96 well flat bottom microfilter plates (VWR, Catalog #62402-933 9295) • Lipoxygenase screening assay buffer (Cayman, Catalog #760710) • Porcine leukocyte 12/15-lipoxygenase (Cayman, Catalog #60300) • Arachidonic Acid (Sigma, Catalog #A3555) • Xylenol orange tetrasodium salt (Aldrich, Catalog #227854) • Iron (II) sulfate heptahydrate (Sigma, Catalog #F7002) • Sulfuric acid (95-98%) [18M] • Methanol Procedure
(§3) Porcine Leukocyte 12/15-lipoxygenase (Cayman Cat #60300) was used in this assay. Test compound and/or vehicle was added to 1.3 U 12/15-lipoxygenase in 50 mM Tris-HCl buffer, pH 7.4. The reaction was initiated by addition of 70 μM arachidonic acid in Tris-HCl buffer, pH 7.4, and terminated after a 10 minute incubation at room temperature by addition of FOX reagent (25 mM sulphuric acid, 100 μM xylenol orange, 100 μM iron (II) sulphate, methanol:water 9:1). The yellow color of acidified xylenol orange was converted to a blue color by the lipid hydroperoxide-mediated oxidation of Fe 2+ ions and the interaction of the resulting Fe 3+ ions with the dye. The complex was allowed to form during a 1 hour incubation at room temperature with shaking. Absorbance of the Fe 3+ complex was then measured at […] using a spectrophotometer.
(§4) Negative controls contained enzyme during the incubation step but substrate was not added until after the FOX reagent.
Compounds are screened at 5 concentrations in triplicate starting at 10 μM

[4] = target: T2, human recombinant 5-lipoxygenase (Homo sapiens, UniProt P09917); assay: 5-Lipoxygenase enzyme assay; type: biochemical; conditions: 70 μM arachidonic acid, pH 7.4, 10 minute incubation; read-out: IC50, inhibition of 5-Lipoxygenase
T2 construct: purchased Cayman 60402
T2 sequence (P09917 1-674): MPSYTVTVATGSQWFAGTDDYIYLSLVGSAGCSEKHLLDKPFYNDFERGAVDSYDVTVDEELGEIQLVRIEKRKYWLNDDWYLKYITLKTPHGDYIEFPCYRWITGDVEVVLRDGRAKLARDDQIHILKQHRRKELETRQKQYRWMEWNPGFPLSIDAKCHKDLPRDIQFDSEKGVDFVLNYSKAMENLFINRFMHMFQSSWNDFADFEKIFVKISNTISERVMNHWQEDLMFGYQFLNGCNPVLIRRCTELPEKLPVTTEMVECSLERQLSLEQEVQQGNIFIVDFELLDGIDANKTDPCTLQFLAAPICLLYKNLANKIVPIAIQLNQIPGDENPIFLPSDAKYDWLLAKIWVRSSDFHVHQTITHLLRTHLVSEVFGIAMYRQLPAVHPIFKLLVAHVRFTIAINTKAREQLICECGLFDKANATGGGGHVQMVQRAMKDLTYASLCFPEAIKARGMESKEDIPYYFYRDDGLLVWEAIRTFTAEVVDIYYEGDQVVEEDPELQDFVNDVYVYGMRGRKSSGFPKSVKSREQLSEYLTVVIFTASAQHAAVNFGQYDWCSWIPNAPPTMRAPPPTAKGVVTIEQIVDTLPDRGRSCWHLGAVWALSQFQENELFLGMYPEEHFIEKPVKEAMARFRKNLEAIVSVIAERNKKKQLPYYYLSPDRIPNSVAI
Text: as §1
This procedure was used for measuring the enzymatic activity of human recombinant 5-lipoxygenase using a colorimetric method based on the ferric oxidation of xylenol orange.
as §2, with “Human recombinant 5-lipoxygenase” for “Porcine leukocyte 12/15-lipoxygenase”, “#60402)” for “#60300)”, “[18M]—Methanol” for “[18M] • Methanol”
as §3, with “Human recombinant 5-lipoxygenase” for “Porcine Leukocyte 12/15-lipoxygenase”, “#60402)” for “#60300)”, “The test” for “Test”, “0.51-1 5-lipoxygenase” for “1.3 U 12/15-lipoxygenase”
as §4
Compounds were screened at 5 concentrations in triplicate starting at 10 μM

**Q.** For `Cc1c(C)c2c(c(-c3cccc([N+](=O)[O-])c3)c1O)CCC(C)(C)O2` [2,2,7,8-Tetramethyl-5-(3-nitro-phenyl)-chroman-6-ol], which EC50 [1] is on record?
**A.** < 1000 nM

**Q.** Which results are given for `Cc1c(C)c2c(c(-c3cccnc3)c1O)CCC(C)(C)O2` [2,2,7,8-Tetramethyl-5-pyridin-3-yl-chroman-6-ol]?
**A.** EC50 [1]: < 1000 nM; EC50 [2]: < 5000 nM

**Q.** For `Cc1c(C)c2c(c(C)c1O)CCC(C)(C=C(Cl)Cl)O2` (centres unmarked) [2-(2,2-Dichloro-vinyl)-2,5,7,8-tetramethyl-chroman-6-ol], which IC50 [3] is on record?
**A.** < 1000 nM

**Q.** And the IC50 [4]?
**A.** < 1000 nM

**Q.** `Cc1cc2c(c(C)c1O)CCC(CCCCl)(c1cccs1)O2` (centres unmarked) [2-(3-Chloro-propyl)-5,7-dimethyl-2-thiophen-2-yl-chroman-6-ol] was tested. Which IC50 [3] did it give?
**A.** < 1000 nM

**Q.** For `Cc1c(C)c2c(c(-c3ccc(C(=O)O)cc3)c1O)CCC(C)(C)O2` [4-(6-Hydroxy-2,2,7,8-tetramethyl-chroman-5-yl)-benzoic acid], which EC50 [1] is on record?
**A.** < 1000 nM

**Q.** What about the EC50 [2] of the same molecule?
**A.** < 5000 nM

**Q.** Which IC50 [3] does the source give for `CC(=CCc1c(O)c(C)c(C)c2c1CCC(C)(C)O2)CCCl` [5-(5-Chloro-3-methyl-pent-2-enyl)-2,2,7,8-tetramethyl-chroman-6-ol] here?
**A.** < 1000 nM

**Q.** With `Cc1c(C)c2c(c(Cl)c1O)CCC(C)(c1cccs1)O2` (centres unmarked) [5-Chloro-2,7,8-trimethyl-2-thiophen-2-yl-chroman-6-ol] as the molecule, how does the IC50 [3] read?
**A.** < 1000 nM

**Q.** `Cc1cc(C2(C)CCc3c(C)c(O)c(C)c(Cl)c3O2)c(C)s1` (centres unmarked) [8-Chloro-2-(2,5-dimethyl-thiophen-3-yl)-2,5,7-trimethyl-chroman-6-ol] was tested. Which IC50 [3] did it give?
**A.** < 1000 nM
